# System: MDA-231 cancer cells
# Test: Inhibition of proliferation assay, cell confluence (IncuCyte live cell imaging)
# Assay type: cell-based
# Details: MDA-231 cells, concentration 10 uM; relative confluence normalised to time zero, images every 3 h over 4-5 d
# Text: Inhibition of Proliferation Assay Cell Confluence The confluence value is a surrogate for cell proliferation and growth. The value is expressed as a percent confluence, which represents the fraction of culture dish-surface that is occupied by cells. As the number of cells in the dish increases over time due to proliferation, so will their coverage of that surface increase. Expansion of the cell population on the cell culture-dish surface and confluence have mostly a linear relationship until the cells on the plate surface begin to reach saturation or maximum density. Confluence is determined based on image analysis. Image based software can identify objects in the image field base on changes to pixel density in a grey scale image. The software can then assign a mask to those pixels within the object. Objects can be ‘gated’ out based on size and shape. To determine cell confluence, images of cells are first masked as objects. The surface area of the image that is masked is measured and compared to the total surface area of the culture dish surface to obtain a percent confluence. MDA-231 cancer cells were obtained from ATCC. Cells were cultured in Dulbecco's Modified Eagle Medium (DMEM) supplemented with 10% Fetal Bovine Serum (FBS), 2 mM Glutamax, 1 mM Non Essential Amino Acid (NEAA) solution and 1 mM sodium pyruvate. Compounds were dissolved in DMSO at 10 mM and diluted in cellular medium and tested at 10 μM (micromolar). Final DMSO concentrations were <0.1%. Images were acquired with an IncuCyte Live Cell Imaging microscopy (Essen Bioscience) at every 3 h under cell culture conditions with 10× objective over 4-5 d. Cell confluence was calculated from one field of view per well using the IncuCyte in-built algorithm. Relative confluence values were obtained by normalising each value to the time zero value in each sample.
row,Compound,% Confluence [%]
1,"CC[C@H]1OC(=O)[C@H](C)[C@@H](O[C@H]2C[C@@](C)(OC)[C@@H](O)[C@H](C)O2)[C@H](C)[C@@H](O[C@@H]2O[C@H](C)C[C@H](N(C)C)[C@H]2O)[C@](C)(O)C[C@@H](C)CN(C(=O)CCCCCCC[P+](c2ccccc2)(c2ccccc2)c2ccccc2)[C@H](C)[C@@H](O)[C@]1(C)O [Example 9, {8-[(2R,3S,4R,5R,8R,10R,11R,12S,13S,14R)-11-{[(2S,3R,4S,6R)-4-(dimethylamino)-3-hydroxy-6-methyloxan-2-yl]oxy}-2-ethyl-3,4,10-trihydroxy-13-{[(2R,4R,5S,6S)-5-hydroxy-4-methoxy-4,6-dimethyloxan-2-yl]oxy}-3,5,8,10,12,14-hexamethyl-15-oxo-1-oxa-6-azacyclopentadecan-6-yl]-8-oxooctyl}triphenylphosphonium hexafluorophosphate(V)]",105.3
2,"CC[C@H]1OC(=O)[C@H](C)[C@@H](O)[C@H](C)[C@@H](O[C@@H]2O[C@H](C)C[C@H](N(C)C)[C@H]2O)[C@](C)(O)C[C@@H](C)CN(C(=O)CCCCCCCCCCC[P+](c2ccccc2)(c2ccccc2)c2ccccc2)[C@H](C)[C@@H](O)[C@]1(C)O [Example 12, {12-[(2R,3S,4R,5R,8R,10R,11R,12S,13S,14R)-11-{[(2S,3R,4S,6R)-4-(dimethylamino)-3-hydroxy-6-methyloxan-2-yl]oxy}-2-ethyl-3,4,10,13-tetrahydroxy-3,5,8,10,12,14-hexamethyl-15-oxo-1-oxa-6-azacyclopentadecan-6-yl]-12-oxododecyl}triphenylphosphonium hexafluorophosphate(V)]",6.6
3,"CC[C@H]1OC(=O)[C@H](C)[C@@H](O)[C@H](C)[C@@H](O)[C@](C)(O)C[C@@H](C)CN(C(=O)CCCCCCCCCCC[PH](c2ccccc2)(c2ccccc2)c2ccccc2)[C@H](C)[C@@H](O)[C@]1(C)O [Example 13, {12-[(2R,3S,4R,5R,8R,10R,11R,12S,13S,14R)-2-ethyl-3,4,10,11,13-pentahydroxy-3,5,8,10,12,14-hexamethyl-15-oxo-1-oxa-6-azacyclopentadecan-6-yl]-12-oxododecyl}triphenylphosphonium hexafluorophosphate(V)]",11
4,"CC[C@H]1OC(=O)[C@H](C)[C@@H](O[C@H]2C[C@@](C)(OC)[C@@H](O)[C@H](C)O2)[C@H](C)[C@@H](O[C@@H]2O[C@H](C)C[C@H](N(C)C)[C@H]2O)[C@](C)(O)C[C@@H](C)CN(CCCCCCCCCC[PH](c2ccccc2)(c2ccccc2)c2ccccc2)[C@H](C)[C@@H](O)[C@]1(C)O [Example 14, {10-[(2R,3S,4R,5R,8R,10R,11R,12S,13S,14R)-11-{[(2S,3R,4S,6R)-4-(dimethylamino)-3-hydroxy-6-methyloxan-2-yl]oxy}-2-ethyl-3,4,10-trihydroxy-13-{[(2R,4R,5S,6S)-5-hydroxy-4-methoxy-4,6-dimethyloxan-2-yl]oxy}-3,5,8,10,12,14-hexamethyl-15-oxo-1-oxa-6-azacyclopentadecan-6-yl]decyl}triphenylphosphonium iodide]",10.1
5,"CC[C@H]1OC(=O)[C@H](C)[C@@H](O[C@H]2C[C@@](C)(OC)[C@@H](O)[C@H](C)O2)[C@H](C)[C@@H](O[C@@H]2O[C@H](C)C[C@H](N(C)C)[C@H]2O)[C@](C)(O)C[C@@H](C)CN(CCCCCCCCC[PH](c2ccccc2)(c2ccccc2)c2ccccc2)[C@H](C)[C@@H](O)[C@]1(C)O [Example 15, {9-[(2R,3S,4R,5R,8R,10R,11R,12S,13S,14R)-11-{[(2S,3R,4S,6R)-4-(dimethylamino)-3-hydroxy-6-methyloxan-2-yl]oxy}-2-ethyl-3,4,10-trihydroxy-13-{[(2R,4R,5S,6S)-5-hydroxy-4-methoxy-4,6-dimethyloxan-2-yl]oxy}-3,5,8,10,12,14-hexamethyl-15-oxo-1-oxa-6-azacyclopentadecan-6-yl]nonyl}triphenylphosphonium iodide]",10.7

# Reference: patent US11560395B2, “Azithromycin derivatives containing a phosphonium ion as anticancer agents” (Rising Tide Foundation, priority 2017, dated 2023)
